pEC50: −log10 of the molar value. Counter-ions that a name gives are not always drawn.
Target: T1, RIPK1 (Homo sapiens, UniProt Q13546)
T1 construct: recombinant GST-RIPK1 kinase domain (residues 1-327) enzyme produced from baculovirus-transfected Sf21 cells; host or cells: baculovirus-transfected Sf21 insect cells
T1 sequence (Q13546 1-327): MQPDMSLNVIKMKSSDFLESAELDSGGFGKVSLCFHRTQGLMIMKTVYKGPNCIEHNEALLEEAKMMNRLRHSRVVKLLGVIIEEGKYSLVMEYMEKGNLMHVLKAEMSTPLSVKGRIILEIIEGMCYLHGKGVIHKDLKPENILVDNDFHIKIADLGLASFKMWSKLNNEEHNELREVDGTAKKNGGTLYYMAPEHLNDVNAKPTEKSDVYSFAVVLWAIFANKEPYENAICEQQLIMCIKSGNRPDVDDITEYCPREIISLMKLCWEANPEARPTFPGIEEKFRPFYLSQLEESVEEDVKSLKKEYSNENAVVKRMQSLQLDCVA
Test: RIPK1-ADP-Glo enzymatic assay
Type: biochemical
Conditions: ADP-Glo luminescent ADP detection; 25 nM GST-RIPK1 kinase domain (residues 1-327), 300 μM ATP, dephosphorylated-MBP substrate; 30 min pre-incubation, 150 min reaction
Procedure, shortened: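 GST-RIPK1 kinase domain (residues 1-327, Sf21-expressed), 25 nM final, pre-incubated 30 min with compound (10-point 1:3 series from 100000 nM), then reacted 150 min with 300 μM ATP and 3 μM dephosphorylated MBP in HEPES pH 7.3 buffer. ADP read by ADP-Glo luminescence; EC50 from four-parameter fit.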

Row | SMILES | pEC50
1 | C[C@@H]1[C@@H](Oc2ccc(F)cc2)CN1C(=O)N1N=CC[C@H]1c1ccc(Cl)cc1 [Example 2.28, ((S)-5-(4-chlorophenyl)-4,5-dihydro-1H-pyrazol-1-yl)((2R,3S)-3-(4-fluorophenoxy)-2-methylazetidin-1-yl)methanone] | 8.23
2 | Cc1ncc([C@@H]2CC=NN2C(=O)N2CC(C)(Oc3ccc(F)cc3)C2)cc1F [Example 2.30, (S)-(5-(5-fluoro-6-methylpyridin-3-yl)-4,5-dihydro-1H-pyrazol-1-yl)(3-(4-fluorophenoxy)-3-methylazetidin-1-yl)methanone] | 7.85
3 | CC1(Oc2ccc(F)cc2)CN(C(=O)N2N=CC[C@H]2c2cncc(C#N)c2)C1 [Example 2.32, (S)-5-(1-(3-(4-fluorophenoxy)-3-methylazetidine-1-carbonyl)-4,5-dihydro-1H-pyrazol-5-yl)nicotinonitrile] | 7.59
4 | CC1(Oc2ccc(F)cc2)CN(C(=O)N2N=CC[C@H]2c2cc(F)cc(F)c2)C1 [Example 2.33, (S)-(5-(3,5-difluorophenyl)-4,5-dihydro-1H-pyrazol-1-yl)(3-(4-fluorophenoxy)-3-methylazetidin-1-yl)methanone] | 7.70
5 | CC1(Oc2ccc(F)cc2)CN(C(=O)N2N=CC[C@H]2c2ccc(Cl)cc2)C1 [Example 2.34, (S)-(5-(4-chlorophenyl)-4,5-dihydro-1H-pyrazol-1-yl)(3-(4-fluorophenoxy)-3-methylazetidin-1-yl)methanone] | 7.90
6 | CC1(Oc2ccnc(C#N)c2)CN(C(=O)N2N=CC[C@H]2c2cc(F)cc(F)c2)C1 [Example 2.35, (S)-4-((1-(5-(3,5-difluorophenyl)-4,5-dihydro-1H-pyrazole-1-carbonyl)-3-methylazetidin-3-yl)oxy)picolinonitrile] | 7.62
7 | C[C@H]1[C@@H](Oc2ccnc(C#N)c2)CN1C(=O)N1N=CC[C@H]1c1cc(F)cc(F)c1 [Example 2.36, 4-(((25,3S)-1-((S)-5-(3,5-difluorophenyl)-4,5-dihydro-1H-pyrazole-1-carbonyl)-2-methylazetidin-3-yl)oxy)picolinonitrile] | 7.69
8 | C[C@@H]1[C@@H](Oc2ccnc(C#N)c2)CN1C(=O)N1N=CC[C@H]1c1cc(F)cc(F)c1 [Example 2.37, 4-(((2R,3S)-1-((S)-5-(3,5-difluorophenyl)-4,5-dihydro-1H-pyrazole-1-carbonyl)-2-methylazetidin-3-yl)oxy)picolinonitrile] | 8.18
9 | C[C@@H]1[C@H](Oc2ccnc(C#N)c2)CN1C(=O)N1N=CC[C@H]1c1cc(F)cc(F)c1 [Example 2.38, 4-(((2R,3R)-1-((S)-5-(3,5-difluorophenyl)-4,5-dihydro-1H-pyrazole-1-carbonyl)-2-methylazetidin-3-yl)oxy)picolinonitrile] | 7.07
10 | N#Cc1cncc([C@@H]2CC=NN2C(=O)N2CC(Oc3ccc(F)cc3)C2)c1 [Example 2.39, (S)-5-(1-(3-(4-fluorophenoxy)azetidine-1-carbonyl)-4,5-dihydro-1H-pyrazol-5-yl)nicotinonitrile] | 7.48
11 | N#Cc1cc(C(F)(F)C2CN(C(=O)N3N=CC[C@H]3c3cc(F)cc(F)c3)C2)ccn1 [Example 2.41, (S)-4-((1-(5-(3,5-difluorophenyl)-4,5-dihydro-1H-pyrazole-1-carbonyl)azetidin-3-yl)difluoromethyl)picolinonitrile] | 7.64
12 | N#Cc1cccc(OC2CN(C(=O)N3N=CC[C@H]3c3cc(F)cc(F)c3)C2)c1 [Example 2.44, (S)-3-((1-(5-(3,5-difluorophenyl)-4,5-dihydro-1H-pyrazole-1-carbonyl)azetidin-3-yl)oxy)benzonitrile] | 7.92
13 | CCC1(Oc2ccccc2)CN(C(=O)N2N=CC[C@H]2c2cc(F)cc(F)c2)C1 [Example 2.45, (S)-(5-(3,5-difluorophenyl)-4,5-dihydro-1H-pyrazol-1-yl)(3-ethyl-3-phenoxyazetidin-1-yl)methanone] | 7.24
14 | N#Cc1cc(CC2CN(C(=O)N3N=CC[C@H]3c3cc(F)cc(F)c3)C2)ccn1 [Example 2.46, (S)-4-((1-(5-(3,5-difluorophenyl)-4,5-dihydro-1H-pyrazole-1-carbonyl)azetidin-3-yl)methyl)picolinonitrile] | 7.33
15 | O=C(N1CC(OC2CCC2)C1)N1N=CC[C@H]1c1cc(F)cc(F)c1 [Example 2.47, (S)-(3-cyclobutoxyazetidin-1-yl)(5-(3,5-difluorophenyl)-4,5-dihydro-1H-pyrazol-1-yl)methanone] | 7.03
16 | N#Cc1cc(OC2CN(C(=O)N3N=CC[C@H]3c3cc(F)cc(F)c3)C2)ccn1 [Example 3.1, (S)-4-((1-(5-(3,5-difluorophenyl)-4,5-dihydro-1H-pyrazole-1-carbonyl)azetidin-3-yl)oxy)picolinonitrile, TFA Salt] | 8.18
17 | Cn1c(OC2CN(C(=O)N3N=CC[C@H]3c3cc(F)cc(F)c3)C2)nc2ccccc21 [Example 3.2, (S)-(5-(3,5-difluorophenyl)-4,5-dihydro-1H-pyrazol-1-yl)(3-((1-methyl-1H-benzo[d]imidazol-2-yl)oxy)azetidin-1-yl)methanone, TFA salt] | 7.01
18 | Cc1ncnc(OC2CN(C(=O)N3N=CC[C@H]3c3cc(F)cc(F)c3)C2)c1C [Example 3.3, (S)-(5-(3,5-difluorophenyl)-4,5-dihydro-1H-pyrazol-1-yl)(3-((5,6-dimethylpyrimidin-4-yl)oxy)azetidin-1-yl)methanone, TFA salt] | 7.12
19 | CSc1nc(C)cc(OC2CN(C(=O)N3N=CC[C@H]3c3cc(F)cc(F)c3)C2)n1 [Example 3.4, (S)-(5-(3,5-difluorophenyl)-4,5-dihydro-1H-pyrazol-1-yl)(3-((6-methyl-2-(methylthio)pyrimidin-4-yl)oxy)azetidin-1-yl)methanone, TFA salt] | 7.42
20 | Cc1csc(OC2CN(C(=O)N3N=CC[C@H]3c3cc(F)cc(F)c3)C2)n1 [Example 3.5, (S)-(5-(3,5-difluorophenyl)-4,5-dihydro-1H-pyrazol-1-yl)(3-((4-methylthiazol-2-yl)oxy)azetidin-1-yl)methanone, TFA salt] | 8.05
21 | O=C(N1CC(Oc2nc3ccncc3s2)C1)N1N=CC[C@H]1c1cc(F)cc(F)c1 [Example 3.6, (S)-(5-(3,5-difluorophenyl)-4,5-dihydro-1H-pyrazol-1-yl)(3-(thiazolo[5,4-c]pyridin-2-yloxy)azetidin-1-yl)methanone, TFA salt] | 7.74
22 | Cc1nc(OC2CN(C(=O)N3N=CC[C@H]3c3cc(F)cc(F)c3)C2)cc(C(C)(C)O)n1 [Example 3.7, (S)-(5-(3,5-difluorophenyl)-4,5-dihydro-1H-pyrazol-1-yl)(3-((6-(2-hydroxypropan-2-yl)-2-methylpyrimidin-4-yl)oxy)azetidin-1-yl)methanone, TFA salt] | 5.83
23 | O=C(N1CC(Oc2ncc(Cn3cccn3)s2)C1)N1N=CC[C@H]1c1cc(F)cc(F)c1 [Example 3.8, (S)-(3-((5-((1H-pyrazol-1-yl)methyl)thiazol-2-yl)oxy)azetidin-1-yl)(5-(3,5-difluorophenyl)-4,5-dihydro-1H-pyrazol-1-yl)methanone, TFA salt] | 6.98

Source: patent US20230265094A1, “RIPK1 INHIBITORS AND METHODS OF USE” (Merck Sharp & Dohme LLC, priority 2020, published 2023)
